According to ChEMBL document CHEMBL1201862, “PubChem BioAssay data set” (2004):
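Five compound concentrations were applied to cells in 96-well plates for 48 hours; endpoints were derived by simple linear interpolation of the resulting dose-response curve. At the GI50, growth is halved.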 Active and inactive are the calls of the source. Rule as the data show it: active = GI50 up to about 1.1 µM and inactive = higher.

Legend:
Assay in all cases: NCI-60 cell line screen, 48 h
[1] = tested on: A498
[2] = tested on: ACHN
[3] = tested on: HCC 2998
[4] = tested on: HL-60
[5] = tested on: HOP-92
[6] = tested on: Hs-578T
[7] = tested on: M14
[8] = tested on: MCF7
[9] = tested on: MDA-MB-435
[10] = tested on: OVCAR-8
[11] = tested on: PC-3
[12] = tested on: RPMI-8226
[13] = tested on: RXF 393
[14] = tested on: SF-268
[15] = tested on: SK-MEL-2
[16] = tested on: TK-10
[17] = tested on: U-251
[18] = tested on: UACC-257
[19] = tested on: UACC-62
[20] = tested on: SR

SMILES | GI50 [1] | GI50 [2] | GI50 [3] | GI50 [4] | GI50 [5] | GI50 [6] | GI50 [7] | GI50 [8] | GI50 [9] | GI50 [10] | GI50 [11] | GI50 [12] | GI50 [13] | GI50 [14] | GI50 [15] | GI50 [16] | GI50 [17] | GI50 [18] | GI50 [19] | GI50 [20]
COc1ccc(-c2cc3c(nn2)-c2ccccc2C3=O)cc1 | > 10 µM (inactive) | > 10 µM (inactive) | > 10 µM (inactive) | > 10 µM (inactive) | > 10 µM (inactive) | > 10 µM (inactive) | > 10 µM (inactive) | 8.93 µM (inactive) | > 10 µM (inactive) | > 10 µM (inactive) | > 10 µM (inactive) | > 10 µM (inactive) | > 10 µM (inactive) | > 10 µM (inactive) | > 10 µM (inactive) | > 10 µM (inactive) | > 10 µM (inactive) | > 10 µM (inactive) | > 10 µM (inactive) | 
N=C(CC/C(N)=N/O)NO | > 100 µM (inactive) | > 100 µM (inactive) | > 100 µM (inactive) |  | > 100 µM (inactive) | > 100 µM (inactive) | 38.7 µM (inactive) |  | > 100 µM (inactive) |  | > 100 µM (inactive) |  | > 100 µM (inactive) | > 100 µM (inactive) | > 100 µM (inactive) | > 100 µM (inactive) | > 100 µM (inactive) | > 100 µM (inactive) | > 100 µM (inactive) | > 100 µM (inactive)
NC(=O)c1sc2nc3ccccc3n2c1N | 63.1 µM (inactive) | 59.8 µM (inactive) | 86.7 µM (inactive) | > 100 µM (inactive) | 69.8 µM (inactive) | 46 µM (inactive) | > 100 µM (inactive) | > 100 µM (inactive) | > 100 µM (inactive) | 65.8 µM (inactive) | > 100 µM (inactive) | > 100 µM (inactive) | 21.1 µM (inactive) | 47.2 µM (inactive) | 30.2 µM (inactive) | 42.7 µM (inactive) | 28.2 µM (inactive) | > 100 µM (inactive) | 20 µM (inactive) | 
C[S+]=c1sc2ccccc2s1 | > 100 µM (inactive) | > 100 µM (inactive) | > 100 µM (inactive) | > 100 µM (inactive) | > 100 µM (inactive) |  | > 100 µM (inactive) |  |  | > 100 µM (inactive) |  | > 100 µM (inactive) | > 100 µM (inactive) | > 100 µM (inactive) | > 100 µM (inactive) | > 100 µM (inactive) | > 100 µM (inactive) | > 100 µM (inactive) | > 100 µM (inactive) | > 100 µM (inactive)
CSc1[nH]cnc1C(N)=S | > 100 µM (inactive) | > 100 µM (inactive) |  | > 100 µM (inactive) |  | > 100 µM (inactive) | > 100 µM (inactive) | > 100 µM (inactive) | > 100 µM (inactive) | > 100 µM (inactive) | > 100 µM (inactive) | > 100 µM (inactive) | > 100 µM (inactive) | > 100 µM (inactive) | > 100 µM (inactive) | > 100 µM (inactive) | > 100 µM (inactive) | > 100 µM (inactive) | > 100 µM (inactive) | 
C[n+]1c(-c2ccccc2)cc2/c(=C\c3ccccc3)c3ccccc3n21 | 6.32 µM (inactive) | 3.13 µM (inactive) | 3.84 µM (inactive) | 0.0452 µM (active) | 1.69 µM (inactive) | 0.116 µM (active) | 1.27 µM (inactive) | 1.34 µM (inactive) | 0.726 µM (active) | 0.361 µM (active) | 0.918 µM (active) |  | 1.36 µM (inactive) | 0.593 µM (active) | 0.832 µM (active) | 2.72 µM (inactive) | 0.233 µM (active) | 0.991 µM (active) | 1.3 µM (inactive) | 
COc1cc2c(cc1OCCCCN1C(=O)c3cccc4cccc(c34)C1=O)N=C[C@@H]1CCCN1C2=O | 7.66 µM (inactive) | 2.22 µM (inactive) | 6.97 µM (inactive) |  | 6.18 µM (inactive) |  | 5.56 µM (inactive) | 1.69 µM (inactive) | 3.83 µM (inactive) | 3.11 µM (inactive) | 5.27 µM (inactive) | 2.69 µM (inactive) | 2.09 µM (inactive) | 4.92 µM (inactive) | 3.47 µM (inactive) | 2.47 µM (inactive) | 3.24 µM (inactive) | 7.05 µM (inactive) | 3.47 µM (inactive) | 
Cc1cc2c(cc1Cl)SC(NNC(=O)c1ccco1)=NS2(=O)=O | > 10 µM (inactive) | > 10 µM (inactive) | > 10 µM (inactive) | > 10 µM (inactive) |  | > 10 µM (inactive) | > 10 µM (inactive) | > 10 µM (inactive) | > 10 µM (inactive) | > 10 µM (inactive) | > 10 µM (inactive) | > 10 µM (inactive) | > 10 µM (inactive) | > 10 µM (inactive) | > 10 µM (inactive) | > 10 µM (inactive) | > 10 µM (inactive) | > 10 µM (inactive) | > 10 µM (inactive) | 
Nc1cc(N2CCCC2)nc(=O)n1-c1ccccc1 |  | > 100 µM (inactive) | 20.7 µM (inactive) | > 100 µM (inactive) | > 100 µM (inactive) |  | > 100 µM (inactive) | > 100 µM (inactive) | > 100 µM (inactive) | > 100 µM (inactive) | > 100 µM (inactive) | > 100 µM (inactive) |  |  | > 100 µM (inactive) | > 100 µM (inactive) | > 100 µM (inactive) | > 100 µM (inactive) |  | > 100 µM (inactive)
COc1ccc(CNC(=O)NCn2cc(-c3ccccc3)nn2)cc1 |  | > 100 µM (inactive) | 14.1 µM (inactive) | > 100 µM (inactive) | > 100 µM (inactive) |  | > 100 µM (inactive) | > 100 µM (inactive) | > 100 µM (inactive) | > 100 µM (inactive) | > 100 µM (inactive) | > 100 µM (inactive) |  | > 100 µM (inactive) | > 100 µM (inactive) | > 100 µM (inactive) | > 100 µM (inactive) | > 100 µM (inactive) |  | > 100 µM (inactive)
C[n+]1c2ccccc2c(CNC(CS)C(=O)O)c2ccccc21 (centres undefined) | 17.2 µM (inactive) | 27.2 µM (inactive) | 31.5 µM (inactive) | 17.3 µM (inactive) | 18.7 µM (inactive) |  | 38.9 µM (inactive) |  |  | 25.4 µM (inactive) |  | 16.9 µM (inactive) | 24.1 µM (inactive) | 20.4 µM (inactive) | 26.8 µM (inactive) | 39.1 µM (inactive) | 24.2 µM (inactive) | 38.5 µM (inactive) | 14.6 µM (inactive) | 12.7 µM (inactive)
O=C(O)c1cccc(S(=O)(=O)NN2C(=O)CSC2c2c(O)ccc3ccccc23)c1 (centres undefined) | 24.5 µM (inactive) | 34.1 µM (inactive) | 52.6 µM (inactive) | 28 µM (inactive) |  |  | 42.2 µM (inactive) |  | 37.6 µM (inactive) | < 0.01 µM (active) | 33 µM (inactive) |  | 45 µM (inactive) | 32.5 µM (inactive) | 33.5 µM (inactive) | > 100 µM (inactive) | 34.3 µM (inactive) | 56.4 µM (inactive) | 27 µM (inactive) | 24.9 µM (inactive)
COC(=O)[C@@H]1[C@H](O)CCC2=C(CC(=O)c3ccoc3)[C@H](C)CC[C@]21C | > 50 µM (inactive) | > 50 µM (inactive) | > 50 µM (inactive) |  | > 50 µM (inactive) | > 50 µM (inactive) | 41.2 µM (inactive) | 26.4 µM (inactive) |  | 35.8 µM (inactive) | 23.4 µM (inactive) |  | 41.7 µM (inactive) |  | > 50 µM (inactive) | > 50 µM (inactive) | 41.2 µM (inactive) | 22.9 µM (inactive) | 25.4 µM (inactive) | 
CCOc1cc(/C=N\N(C)C)cc(/C=N\N(C)C)c1O | 55.5 µM (inactive) | 21.5 µM (inactive) | 91.2 µM (inactive) | 52.5 µM (inactive) | 7.66 µM (inactive) | 29.7 µM (inactive) | 40.2 µM (inactive) |  | 32.5 µM (inactive) | 21.6 µM (inactive) | 33.2 µM (inactive) | 31.6 µM (inactive) |  | 19.8 µM (inactive) | 28.2 µM (inactive) | 69.2 µM (inactive) | 33.7 µM (inactive) | 36 µM (inactive) | 69 µM (inactive) | 38 µM (inactive)
Cc1cn(CC2=NC3CCCCC3N2)c(=O)[nH]c1=O (centres undefined) | > 100 µM (inactive) | > 100 µM (inactive) | > 100 µM (inactive) | > 100 µM (inactive) | > 100 µM (inactive) | > 100 µM (inactive) | > 100 µM (inactive) | > 100 µM (inactive) |  | > 100 µM (inactive) | > 100 µM (inactive) | > 100 µM (inactive) | > 100 µM (inactive) | > 100 µM (inactive) | > 100 µM (inactive) | > 100 µM (inactive) | > 100 µM (inactive) | > 100 µM (inactive) | > 100 µM (inactive) | > 100 µM (inactive)
Cc1ccc(Nc2n[nH]c(=S)s2)cc1C | 58.7 µM (inactive) | > 100 µM (inactive) | 70.6 µM (inactive) | 71.1 µM (inactive) | > 100 µM (inactive) | > 100 µM (inactive) | > 100 µM (inactive) | 90.4 µM (inactive) | 53.5 µM (inactive) | > 100 µM (inactive) | > 100 µM (inactive) | 81.5 µM (inactive) | > 100 µM (inactive) | > 100 µM (inactive) | > 100 µM (inactive) | > 100 µM (inactive) | 92.7 µM (inactive) | > 100 µM (inactive) | > 100 µM (inactive) | 
